Assays:
[1] = tested on: passive cutaneous anaphylaxis (PCA); test: Passive cutaneous anaphylaxis assay (PCA) in rats; format: in vivo, rat (Wister strain); conditions: oral 10 mg/kg, one hour before antigen; for inhibition in vivo at 10 mg/kg: Rattus norvegicus, po, 1 h, read-out: PCA Inhibition Ratio %
Procedure: (§1) The effect of the compounds (I) of the present invention in the treatment of asthma and allergic diseases were evaluated by a passive cutaneous anaphylaxis assay (PCA) in rats and by measuring anti-SRS-A action using ileus of guinea pigs.
(i) Antiserum abundant in homocytotropic antibody is prepared by the same method as Tada and Okumura did (cf. Journal of Immunology, volume 106, page 1002, […]). Thus, one mg (calculated as an amount of protein) of DNP-As (2,4-dinitrophenyl-coupled ascaris extract) prepared by methods of Strejan and Campbell (Journal of Immunology, volume 98, page 893, 1971) and of Eisen (Journal of American Chemical Society, volume 85, page 4593, 1953) and […] pertussis vaccine are administered to each paw of Wister strain rats (180 to 200 grams body weights) by dividing the dose by four. Five days later, 0.5 mg of DNP-As is adminstered into muscle of back. Eight days later from the initial immunization, blood is taken from descending aorta under anesthetizing with ether, the resulting serum is stored at -80° C. and is melted before use.
(ii) Effect of tested compounds is investigated as follows:
Anti-serum obtained by the method (i) is diluted with physiological saline solution double by double successively and 0.05 ml of each diluted solution is administered into back of Wister strain rats (140 to 160 grams body weight) subcutaneously. After 72 hours, a solution of 2 mg (calculated as protein) of DNP-As and 2.5 mg of Evand Blue dissolved in 1 ml of physiological saline solution is administered intravenously at a dose of 5 ml/kg. After thirty minutes from antigen solution administration, the animals are killed and diameters of blue spots appeared at the place where antiserum is administered are measured. The PCA test is conducted by the same method as already described using a diluted solutions of antiserum which always show 10 mm or more of spot diameters and the effect of the test compounds is judged. Thus, antiserum diluted solutions are administered to two places in back. Test compounds are administered orally at the dose of 10 mg/kg one hour before administration of antigen solution. From the skin of reacted parts of killed animals, leaked or emitted dyestuff is extracted [cf. Baeck and Steinetz: J. Pharmacol. Exp. Ther., Vol. 131, page 400 (1961)] and the amount of the dyestuff is measured. The inhibition ratio is calculated by the following expression: [formula] in which R' is an amount of dyestuff in the group treated with the test compounds and A is that in the control group.

SRS-A = test: Anti-SRS-A action (SRS-A induced shrinkage of guinea pig ileus); parameters: species or system guinea pig (Hartley strain male); conditions: treated five minutes before SRS-A (20 units), 5 min; for SRS-A Inhibition Ratio % 10^-6 M: 1 µM; for SRS-A Inhibition Ratio % 10^-7 M: 0.1 µM
Procedure: as §1
Anti-SRS-A action (An anti-action against slow reacting substance of anaphylaxie)
Hartley strain male guinea pigs (300 to 350 grams body weight) are killed and 1.0 to 1.5 cm of ileus is immediately excised from ileocecal parts and is suspended in 10 ml of Tyrode solution (95% O2 -5% CO2 saturation) containing 10^-7 g/ml of atropine and 10^-6 g/ml of pyrilamine. SRS-A (20 units) (the amount of SRS-A showing the same shrinkage as 5 ng of histamine is defined as one unit) prepared by using sensitized guinea pig lung is given to cause shrinkage there. Then antagonistic action of test compounds treated five minutes ago against the shrinkage is measured and recorded via isotonic transducer. [formula] in which A' is a height of shrinkage of SRS-A + test compound and A is that of SRS-A.

| SMILES | inhibition in vivo at 10 mg/kg [1] | SRS-A Inhibition Ratio % 10^-6 M (SRS-A) | SRS-A Inhibition Ratio % 10^-7 M (SRS-A) | PCA Inhibition Ratio % [1] |
| --- | --- | --- | --- | --- |
| CCCCCCNC(=O)c1cccc2c(=O)c(C)c(-c3ccc(C(C)C)cc3)oc12 [Example 52, 4'-isopropyl-3-methylflavone-8-carboxylic acid N-n-hexylamide] | 13.5% | 66.1% | 20.7% |  |
| CCNC(=O)c1cccc2c(=O)c(C)c(-c3ccc(Cl)cc3)oc12 [Example 73, 4'-chloro-3-methylflavone-8-carboxylic acid N-ethylamide] | 19.4% | 29.4% | 6.2% |  |
| COC(=O)c1cccc2c(=O)c(C)c(-c3ccccc3)oc12 [Example 8, Methyl 3-methylflavone-8-carboxylate] | 17.4% | 64.9% | 45.0% |  |
| CCNC(=O)c1cccc2c(=O)c(C)c(-c3ccc(OC)cc3)oc12 [Example 15, 4'-methoxy-3-methylflavoen-8-carboxylic acid N-ethylamide] | 19% | 41.9% | 30.3% |  |
| Cc1c(-c2ccccc2Cl)oc2c(C(=O)OCCO)cccc2c1=O [Example 69, beta-hydroxyethyl 2'-chloro-3-methylflavone-8-carboxylate] | 14.3% | 55.3% | 9.8% |  |
| CCOC(=O)c1cccc2c(=O)c(C)c(-c3ccccc3OCC)oc12 [Example 17, ethyl 2'-ethoxy-3-methylflavone-8-carboxylate] | 21.1% | 72.5% | 50.0% |  |
| Cc1c(-c2ccc(C(C)C)cc2)oc2c(C(=O)O)cccc2c1=O [Example 7, 4'-Isopropyl-3-methylflavone-8-carboxylic acid] | 19.7% | 40.8% | 19.0% |  |
| CCOC(=O)c1cccc2c(=O)c(C)c(-c3cc(Cl)ccc3Cl)oc12 [Example 77, ethyl 2',5'-dichloro-3-methylflavone-8-carboxylate] | 16.3% | 67.4% | 6.9% |  |
| CCN(CC)C(=O)c1cccc2c(=O)c(C)c(-c3ccc(C)cc3C)oc12 [Example 41, 2',3,4'-trimethylflavone-8-carboxylic acid N,N-diethylamide] | 31.4% | 54.1% | 23.4% |  |
| Cc1c(-c2ccc(C(C)C)cc2)oc2c(C(=O)N3CCCCC3)cccc2c1=O [Example 54, 4'-isopropyl-3-methylflavone-8-carboxylic acid N,N-pentamethylene amide] | 13% | 69.0% | 38.6% |  |
| CCN(CC)C(=O)c1cccc2c(=O)c(C)c(-c3ccccc3OC(C)C)oc12 [Example 22, 2'-isopropoxy-3-methylflavone-8-carboxylic acid N,N-diethylamide] | 16.1% | 66.7% | 40.0% |  |
| CCCCN(CCCC)C(=O)c1cccc2c(=O)c(C)c(-c3ccc(C(C)C)cc3)oc12 [Example 49, 4'-isopropyl-3-methylflavone-8-carboxylic acid N,N-di-n-butylamide] | 20% | 82.8% | 55.6% |  |
| Cc1c(-c2ccc(C(C)C)cc2)oc2c(C(=O)NC3CCCCC3)cccc2c1=O [Example 53, 4'-isopropyl-3-methylflavone-8-carboxylic acid N-cyclohexylamide] | 10.3% | 51.9% | 40.0% |  |
| CCOc1ccccc1-c1oc2c(C(=O)O)cccc2c(=O)c1C [Example 16, 2'-ethoxy-3-methylflavone-8-carboxylic acid] | 18.6% | 14.8% | 10.4% |  |
| CCN(CC)C(=O)c1cccc2c(=O)c(C)c(-c3ccc(OC)cc3OC)oc12 [Example 28, 2',4'-dimethoxy-3-methylflavone-8-carboxylic acid N,N-diethylamide] | 20.1% | 63.2% | 23.0% |  |
| CCN(CC)C(=O)c1cccc2c(=O)c(C)c(-c3ccccc3)oc12 [Example 9, 3-methylflavone-8-carboxylic acid N,N-diethylamide] | 21.9% | 64.7% | 50.7% |  |
| CCN(CC)C(=O)c1cccc2c(=O)c(C)c(-c3ccccc3Cl)oc12 [Example 68] | 21.1% | 55.3% | 9.8% |  |
| CCN(CC)C(=O)c1cccc2c(=O)c(C)c(-c3ccc(C(C)(C)C)cc3)oc12 [Example 57, 4'-tertiary butyl-3-methylflavone-8-carboxylic acid N,N-diethylamide] | 19.1% | 39.1% | 10.4% |  |
| CCOC(=O)c1cccc2c(=O)c(C)c(-c3ccc(C)cc3C)oc12 [Example 40, ethyl 2',3,4'-trimethylflavone-8-carboxylate] | 17.3% | 73.9% | 8.1% |  |
| CCNC(=O)c1cccc2c(=O)c(C)c(-c3ccc(C(C)C)cc3)oc12 [Example 51, 4'-isopropyl-3-methylflavone-8-carboxylic acid N-ethylamide] | 19% | 75.0% | 17.5% |  |
| COc1cccc(-c2oc3c(C(=O)O)cccc3c(=O)c2C)c1OC [Example 23, 2',3'-dimethoxy-3-methylflavone-8-carboxylic acid] | 19.5% | 24.0% | 6.2% |  |
| CCOC(=O)c1cccc2c(=O)c(C)c(-c3cccc(OC)c3OC)oc12 [Example 24, ethyl 2'.3'-dimethoxy-3-methylflavone-8-carboxylate] | 20.4% | 100% | 18.2% |  |
| CCOC(=O)c1cccc2c(=O)c(C)c(-c3ccc(OC)c(OC)c3OC)oc12 [Example 31, ethyl 2',3',4'-trimethoxy-3-methylflaveone-8-carboxylate] |  | 63.0% | 20.4% | 20.2% |
| CCOC(=O)c1cccc2c(=O)c(C)c(-c3ccc(Cl)cc3)oc12 [Example 71, ethyl 4'-chloro-3-methylflavone-8-carboxylate] | 36.9% | 10.3% | 6.0% |  |
| CCN(CC)C(=O)c1cccc2c(=O)c(C)c(-c3cc(Cl)ccc3Cl)oc12 [Example 78, 2',5'-dichloro-3-methylflavone-8-carboxylic acid N,N-diethylamide] | 26.3% | 79.3% | 5.6% |  |

— US4594345A, “Methylflavone-8-carboxylates” (Nippon Shinyaku Co. Ltd., priority 1982, dated 1986)
